According to the METLIN SMRT retention time set (Domingo-Almenara et al. 2019):

Experiment: gradient 5% acetonitrile 3 min, to 50% in 2 min, to 85% in 15 min, held 3 min, 100 µL/min
Details: column: Zorbax Extend-C18 2.1 x 50 mm; eluents: water / acetonitrile, 0.1% formic acid
In short: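 The mobile phases were water and acetonitrile, each with 0.1% formic acid, pumped at 100 μL/min through a Zorbax Extend-C18 column (2.1 × 50 mm, 1.8 μm). Pure standards were injected as mixtures of ~100 molecules and detected by a quadrupole time-of-flight mass spectrometer in positive and negative ionization mode. Retention time came from computationally picked adduct peaks, each inspected by hand.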

| RP-LC retention time [s] | Compound |
| --- | --- |
| 1010 | Cc1cc2nn(CC(=O)N(C)c3ccccc3)c(=O)n2c(Nc2ccc(F)cc2)n1 |
| 616 | COC(=O)c1ccc(CN2CC(=O)N3CCCC3C2=O)cc1 (stereo not drawn) |
| 1050 | CCN1C(=O)COc2ccc(-c3noc(-c4ccc(C#N)cc4)n3)cc21 |
| 659 | O=C(Cn1cnc2nc(N3CCCC(C(=O)NC4CC4)C3)sc2c1=O)Nc1ccc2c(c1)OCO2 (stereo not drawn) |
| 540 | CCN(CC)c1nc(C(=O)N2CCN(C3CCN(C)CC3)CC2)nc2nc(C)cc(C)c12 |
| 586 | CCCC(=O)Nc1ccc2c(c1)nc(CN1CCCC1)n2C(C)C |
| 1180 | Cc1cc(C(=O)Nc2nc(-c3ccccc3)c(-c3ccccc3)s2)no1 |
| 637 | O=C(COc1ccccc1)N1CCCC(c2n[nH]c(C3CC3)n2)C1 (stereo not drawn) |
| 672 | Cc1cccc(-c2nnc(-c3nc(NCCc4cnc[nH]4)c4ccccc4n3)o2)c1 |
| 842 | COC(=O)C1=CN(c2cc(F)ccc2C)c2cc(F)ccc2S1(=O)=O |
| 699 | Cc1[nH]nc(-c2cc(S(=O)(=O)NCCc3ccc(S(N)(=O)=O)cc3)c(C)s2)c1C |
| 870 | O=C(NC1CCCC1)C1c2cccn2CC(=O)N1c1cccc(Cl)c1 (stereo not drawn) |
| 991 | COC(=O)c1cccc(C(=O)Nc2ccc(C)c(Cl)c2)n1 |
| 590 | CN(C)C(=O)C1CCc2nc(N3CCN(C(=O)C4CCC4)CC3)sc2C1 (stereo not drawn) |
| 993 | CCc1cc(=O)n(CC(=O)N2CCCc3ccccc32)c(-n2nc(C)cc2C)n1 |
| 1050 | CC(C)S(=O)(=O)NC[C@H](C)c1ccc(NC(=O)c2cc(F)cc(F)c2)cc1 |
| 691 | CC1CCN(CC2CCN(S(=O)(=O)c3cccc(Cl)c3)CC2)CC1 |
| 796 | CCOC(=O)c1oc2ccccc2c1NC(=O)C1CCCN1S(C)(=O)=O (stereo not drawn) |
| 578 | O=C(c1cc2ccccc2o1)N1CCN(Cc2ccsc2)CC1 |
| 579 | CCCC1c2nccn2CCCN1C(=O)Cc1c(C)noc1C (stereo not drawn) |
| 729 | O=C(c1ccco1)N1c2ccccc2CC1c1nnc(C2CCOCC2)o1 (stereo not drawn) |
| 715 | COc1ccc(OC)c2sc(N(CCN(C)C)C(=O)c3nc4ccccc4s3)nc12 |

| RP-LC retention time [s] | Compound |
| --- | --- |
| 832 | Cc1ccc(-c2noc(-c3cccc(S(=O)(=O)NCCCN4CCCCCC4)c3)n2)cc1 |
| 700 | COc1ccc(N2COc3ccc4c(c3C2)O/C(=C\c2ccco2)C4=O)cc1 |
| 734 | COc1ccc(CN2C(=O)C3(CCOCC3)CC2c2nnnn2C(C)(C)C)c(OC)c1 (stereo not drawn) |
| 630 | CCc1cccc(NC(=O)Nc2c(-c3ccncc3)nc3ccccn23)c1 |
| 970 | Cc1ccc(-c2nnc(-c3nn(C)c4c3CN(S(=O)(=O)c3ccc(F)c(Cl)c3)CC4)o2)cc1 |
| 837 | Cc1cc(C(=O)N2CCCCC2)c2c(=O)n(CC(=O)Nc3cc(F)ccc3F)c(=O)n(C)c2n1 |
| 743 | COc1ccc(S(=O)(=O)NCc2cccnc2-c2ccc(C)cc2)cc1Cl |
| 859 | Cc1ccc(Cn2cccc(S(=O)(=O)N3CCCC3)c2=O)cc1 |
| 766 | COc1ccccc1N1CCN(C(=O)C2CCCN(c3ncnc4c3nc3n4CCCCC3)C2)CC1 (stereo not drawn) |
| 767 | CCOc1cc(=O)n2c(c1C(=O)Nc1cccc(SC)c1)CCCC2 |
| 982 | CCCS(=O)(=O)N1CC(=O)N(c2cc(Cl)ccc2C)C(C)(C(=O)NC2CCCCC2)C1 (stereo not drawn) |
| 1030 | Cc1cc(F)ccc1NC(=O)c1cc(C2CC2)n2nccc2n1 |
| 1100 | COc1cccc(C2Cn3nnc(-c4nc(-c5ccccc5F)no4)c3CO2)c1 (stereo not drawn) |
| 620 | CCC1CN(C(=O)N2CCC(C(=O)NCCN3CCCC3)CC2)c2ccccc2O1 (stereo not drawn) |
| 659 | COc1cc2c(cc1OC)C(C(=O)N1CC(C)CC(C)C1)C(c1cccnc1)N(C)C2=O (stereo not drawn) |
| 710 | CCC(=O)Nc1ccc(-n2cnc(C(=O)NC3CCC(C)CC3)c2)nc1 (stereo not drawn) |
| 786 | Cc1ccccc1NC(=O)N1C[C@@H]2CN(S(=O)(=O)c3ccc(F)cc3)C[C@H](C1)O2 |
| 1200 | COc1ccc(-c2cc(C(=O)Nc3cc(F)cc(F)c3)sn2)cc1 |
| 720 | CCc1cc(=O)n(CC(=O)N2CCN(c3ccc(F)cc3)CC2)c(N2CCOCC2)n1 |
| 588 | CCOCCCNC(=O)CCc1c(-c2ccc(F)cc2)nc2ccccn12 |
| 838 | Brc1cccc(-c2nnc3sc(-c4ccncc4)nn23)c1 |
| 770 | O=C(NCCC1=CCCCC1)C1CCCN(c2ccc3nncn3n2)C1 (stereo not drawn) |

| RP-LC retention time [s] | Compound |
| --- | --- |
| 818 | COc1ccc(-n2ccn3cc(-c4cccs4)nc3c2=O)cc1Cl |
| 1260 | Cc1ccc(NS(=O)(=O)c2cc(-c3nc(C(C)C)cs3)cs2)cc1C |
| 799 | Cc1nc(-c2cccc(F)c2)sc1C(=O)N(C)C |
| 931 | Cc1ccc(C)c(NC(=O)Cn2c(=O)n(-c3ccc(F)cc3)c(=O)c3c2cc(C)n3C)c1 |
| 840 | CCc1cccc(NC(=O)Cn2nc(C(=O)N3CCOCC3)c3ccccc32)c1 |
| 1260 | CCC(C)n1c(=O)c2ccccc2n(Cc2nc(-c3ccc(SC)cc3)no2)c1=O (stereo not drawn) |
| 1270 | CCOC(=O)c1c(C)oc2nc(C)nc(NCCc3ccc(OCC)cc3)c12 |
| 827 | Cc1ccc(N2CCC(NC(=O)Cc3cccs3)C2=O)cc1 (stereo not drawn) |
| 865 | O=C(CCn1nnc2cc(-c3noc(-c4ccccc4F)n3)ccc21)N1CCCC1 |
| 829 | CCN1CCCn2cc(S(=O)(=O)N3CCN(c4ccccc4F)CC3)cc2C1=O |
| 935 | CCc1ccc(C2=C(C)C(N3CCC(NC(=O)CCC(C)C)CC3)=NS2(=O)=O)cc1 |
| 961 | Cc1noc(C)c1-c1ccc(S(=O)(=O)N2CCCCC2)cc1 |
| 1000 | O=c1n(Cc2ccccc2Cl)nc2ccc(S(=O)(=O)N3CCCCCC3)cn12 |
| 882 | COc1ccc(Cn2nccc2NC(=O)COc2ccc(Cl)cc2)cc1 |
| 547 | COc1cc2c(cc1OC)C1C(C(=O)NCCCN3CCN(C)CC3)c3ccccc3C(=O)N1CC2 (stereo not drawn) |
| 879 | COc1ccc(-c2nc3cccnc3n2C2CCN(C(=O)NC3CCCC3)C2)cc1 (stereo not drawn) |
| 869 | Cc1nc(Nc2ccccc2)sc1C(=O)NC1CCCC1 |
| 754 | COc1ccc(CNC(=O)C2CCN(c3nccn4nc(-c5cccs5)cc34)CC2)cc1 |
| 963 | CCOc1ccc(N2C(=O)C3N=NN(Cc4nc(-c5ccc6c(c5)OCO6)no4)C3C2=O)cc1 (stereo not drawn) |
| 1040 | COc1ccc(-c2nnc(-c3cc(S(=O)(=O)N4CCCC4)ccc3Cl)o2)cc1 |
| 757 | O=C(Nc1ccccc1)C1CCN(S(=O)(=O)c2cc(C(=O)N3CCOCC3)cs2)CC1 |
| 683 | Nc1ccccc1NC(=O)CCCCCC(=O)Nc1ccccc1 |

| RP-LC retention time [s] | Compound |
| --- | --- |
| 804 | Cc1cc(F)ccc1N1C(=O)CN(S(C)(=O)=O)CC1(C)C(=O)NCc1ccccc1 (stereo not drawn) |
| 852 | O=C(CC1CCCCN1S(=O)(=O)c1ccc(Cl)cc1)NCc1ccco1 (stereo not drawn) |
| 432 | c1cnc(N2CCN(Cc3ccc4c(c3)OCO4)CC2)nc1 |
| 729 | COc1ccc(C(=O)NC2CCN(C(=O)c3cc(-c4ccc(OC)cc4)n[nH]3)CC2)cc1 |
| 656 | O=C(Nc1nnc(-c2ccco2)o1)c1c[nH]c2ccccc12 |
| 810 | CCCNC(=O)CCc1nc2ccccc2n(CC(=O)Nc2c(C)cccc2CC)c1=O |
| 598 | CCC(CC)C(=O)N1CCN(Cc2nc3cc(C(=O)N4CCCC4)ccc3n2C)CC1 |
| 895 | COc1cccc(CNC(=O)C2(C)CCCN(C(=O)Nc3ccccc3C)C2)c1 (stereo not drawn) |
| 927 | COC[C@@H]1OCCN(S(=O)(=O)c2cccc(OC)c2)[C@H]1c1ccccc1 |
| 614 | CCOC(=O)c1nc(N2CCN(C3CCCCC3)CC2)c2ccccc2n1 |
| 728 | O=C(Nc1cccc(Cl)c1)N1CCN(Cc2nc3ccccc3o2)CC1 |
| 903 | Cn1nc(C(=O)Nc2ccccc2)c2c1CCN(C(=O)Nc1ccccc1Br)C2 |
| 1020 | CCN(CC)S(=O)(=O)c1cccc(-c2nnc(-c3ccc(OC)cc3)o2)c1 |
| 943 | COc1ccc(NC(=O)Cn2c(C)cc(-c3nnc(-c4ccccc4)o3)c2C)cc1F |
| 1090 | O=C(Cn1nc(N2CCCCCC2)c2ccccc2c1=O)Nc1ccc(F)cc1 |
| 782 | O=C(NC1CCN(c2nnc3ccc(C(F)(F)F)cn23)CC1)c1cccc(F)c1 |
| 612 | Cc1cccc(NC(=O)c2ccc(N3CCCC3)nn2)n1 |
| 994 | Cc1ccc(S(=O)(=O)Nc2ccc3c(c2)CCC(=O)N3CC(C)C)cc1Cl |
| 715 | Clc1cccc(-c2nc3ccccn3c2Nc2ccc3c(c2)OCCO3)c1 |
| 876 | CC(C)c1nnc(NC(=O)CCCOc2ccc(Cl)cc2)s1 |
| 738 | Cc1ccc(C)c(NC(=O)C2CCCN2S(C)(=O)=O)c1 (stereo not drawn) |
| 640 | O=C(Nc1cnn(-c2ncc(N3CCSCC3)cn2)c1)C1CCOC1 (stereo not drawn) |
